For one test, the target named is T1, KRas G12C (Homo sapiens, UniProt P01116, G12C).
T1 construct: Biotinylated KRas (corresponding to amino acids 1-169, produced at Accelegan Inc.); biotin (biotinylated); purchased Accelegan Inc
Put plainly: KRas binding assay, TR-FRET displacement of Cy5 labelled tracer. The note with it: 60-minute incubation at room temperature, 1% DMSO, pH 7.5. The method in brief:
(§1)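 Displacement measured on KRas residues 1-169 (biotinylated, terbium-streptavidin labelled); 1 h, RT; 1% DMSO final; HEPES pH 7.5 / MgCl2 / Tween-20 / DTT. IC50: 4-parameter fit.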
(In general: TR-FRET usually uses a lanthanide donor and a delayed reading to cut background.)

Another test addresses T2, KRas G12S (Homo sapiens, UniProt P01116, G12S).
T2 construct: Biotinylated KRas (corresponding to amino acids 1-169, produced at Accelegan Inc.); biotin (biotinylated); purchased Accelegan Inc
The test is described as above. The note with it: 60-minute incubation at room temperature, 1% DMSO, pH 7.5. The method in brief: as §1

A further test concerns the target T3, KRas WT (Homo sapiens, UniProt P01116).
T3 construct: Biotinylated KRas (corresponding to amino acids 1-169, produced at Accelegan Inc.); biotin (biotinylated); purchased Accelegan Inc
The test is described as above. The note with it: 60-minute incubation at room temperature, 1% DMSO, pH 7.5. In short, it runs like this:
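Final conditions: 1% DMSO, pH 7.5 HEPES buffer, 60 min, room temperature. Protein: biotin-KRas 1-169 with terbium streptavidin. Output: IC50, four-parameter fit of POC.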

Test [1] has as its target T4, KRas-mediated phosphorylation of ERK in H358 cells (Homo sapiens, UniProt P01116, G12C).
T4 construct: pERK HTRF read-out
Put plainly: Inhibition of KRas-mediated phosphorylation of ERK (HTRF), H358 cells. It is filed as cell-based. The note with it: HTRF pERK, 3 h incubation.

The target of test [2] is T5, KRas-mediated phosphorylation of ERK in MKN1 cells (Homo sapiens, UniProt P01116).
T5 construct: pERK HTRF read-out
T5 sequence (P01116 1-188 isoform P01116-2): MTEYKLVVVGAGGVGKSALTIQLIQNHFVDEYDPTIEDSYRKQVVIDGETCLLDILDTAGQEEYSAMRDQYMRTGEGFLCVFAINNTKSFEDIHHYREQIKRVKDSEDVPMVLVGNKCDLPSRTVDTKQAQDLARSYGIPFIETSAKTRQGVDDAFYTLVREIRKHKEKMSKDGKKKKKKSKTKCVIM
Put plainly: Inhibition of KRas-mediated phosphorylation of ERK (HTRF), MKN1 cells. In kind it is cell-based. The note with it: MKN1 cells (KRas WT); HTRF pERK; 3 h incubation. How it is done: Inhibition of KRas Phosphorylation of ERK (HTRF) by Exemplary Compounds of Formula (Ia) or (Ib)
Cisbio HTRF Advanced pERK Assay Catalog #64AERPEH • Cells: MKN1, PSN1 • Procedure: • 1. Day 1: Seed 6,000 cells/well −25 μl/well in 384-well white solid bottom plate; RPM1_10% FBS. Incubate overnight at 37 °C/5% CO2. • 2.

Test [3] has as its target T6, KRas-mediated phosphorylation of ERK in A549 cells (Homo sapiens, UniProt P01116, G12S).
T6 construct: pERK HTRF read-out
Kind of test: Inhibition of KRas-mediated phosphorylation of ERK (HTRF), A549 cells. To be noted: HTRF pERK, 3 h incubation. It is filed as cell-based.

T3 sequence (P01116 1-169 isoform P01116-2): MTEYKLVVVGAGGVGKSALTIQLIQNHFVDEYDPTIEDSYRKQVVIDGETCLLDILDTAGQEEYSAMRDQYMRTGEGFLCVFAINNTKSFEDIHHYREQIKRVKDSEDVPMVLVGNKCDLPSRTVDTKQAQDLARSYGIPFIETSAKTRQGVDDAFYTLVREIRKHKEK
T1 sequence (P01116 1-169 isoform P01116-2 G12C): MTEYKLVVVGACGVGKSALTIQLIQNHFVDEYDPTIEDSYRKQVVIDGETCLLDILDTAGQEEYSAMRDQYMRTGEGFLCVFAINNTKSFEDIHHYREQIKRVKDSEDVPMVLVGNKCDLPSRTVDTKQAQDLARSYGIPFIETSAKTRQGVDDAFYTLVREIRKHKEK
T6 sequence (P01116 1-188 isoform P01116-2 G12S): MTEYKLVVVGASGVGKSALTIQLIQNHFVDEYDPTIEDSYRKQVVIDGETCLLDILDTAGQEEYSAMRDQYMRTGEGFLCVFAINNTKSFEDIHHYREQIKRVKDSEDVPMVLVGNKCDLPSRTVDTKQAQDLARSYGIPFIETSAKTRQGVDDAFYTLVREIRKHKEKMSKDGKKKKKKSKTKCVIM
T4 sequence (P01116 1-188 isoform P01116-2 G12C): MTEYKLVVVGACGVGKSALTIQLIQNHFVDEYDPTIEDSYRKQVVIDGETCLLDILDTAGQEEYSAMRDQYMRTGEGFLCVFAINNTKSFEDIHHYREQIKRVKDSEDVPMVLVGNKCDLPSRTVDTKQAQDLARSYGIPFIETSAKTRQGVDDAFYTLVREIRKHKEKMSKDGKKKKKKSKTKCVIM
T2 sequence (P01116 1-169 isoform P01116-2 G12S): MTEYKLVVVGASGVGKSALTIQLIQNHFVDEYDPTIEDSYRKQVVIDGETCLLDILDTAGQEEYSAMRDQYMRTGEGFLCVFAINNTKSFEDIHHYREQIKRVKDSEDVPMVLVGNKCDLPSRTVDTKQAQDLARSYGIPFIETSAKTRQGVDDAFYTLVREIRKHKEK

As to `CN(C)CCc1ccn(C(=O)C2CCCN(c3nc(OC[C@@]45CCCN4C[C@H](F)C5)nc4c(F)c(-c5ccc(F)c6sc(N)c(C#N)c56)c(Cl)cc34)CC2)n1` (stereo partly drawn) [Example 219, 2-amino-4-(6-chloro-4-(4-(3-(2-(dimethylamino)ethyl)-1H-pyrazole-1-carbonyl)azepan-1-yl)-8-fluoro-2-(((2R,7aS)-2-fluorotetrahydro-1H-pyrrolizin-7a(5H)-yl)methoxy)quinazolin-7-yl)-7-fluorobenzo[b]thiophene-3-carbonitrile], the IC50 (usually the concentration that gives 50% inhibition) is 3 nM on KRas G12C; 4 nM at KRas G12S; 10 nM at KRas WT; 16 nM in test [1]; 431 nM in test [2]; 12 nM in test [3].

For the compound `Cc1ccn(C(=O)CCNc2nc(OC[C@@]34CCCN3C[C@H](F)C4)nc3c(F)c(-c4ccc(F)c5sc(N)c(C#N)c45)c(Cl)cc23)n1` [Example 177, 2-amino-4-(6-chloro-8-fluoro-2-(((2R,7aS)-2-fluorotetrahydro-1H-pyrrolizin-7a(5H)-yl)methoxy)-4-((3-(3-methyl-1H-pyrazol-1-yl)-3-oxopropyl)amino)quinazolin-7-yl)-7-fluorobenzo[b]thiophene-3-carbonitrile], the IC50 at KRas G12C came out at 2 nM; at KRas G12S, 4 nM; at KRas WT it was 9 nM; in test [1] it was 1110 nM; in test [2], 1250 nM; in test [3], 227 nM.

As to `CCc1c(F)ccc2cc(O)cc(-c3ncc4c(N5CCCCC(C(=O)n6ccc(C)n6)CC5)nc(OC[C@@]56CCCN5C/C(=C\F)C6)nc4c3F)c12` (stereo partly drawn) [Example 124, (1-(7-(8-ethyl-7-fluoro-3-hydroxynaphthalen-1-yl)-8-fluoro-2-(((S,Z)-2-(fluoromethylene)tetrahydro-1H-pyrrolizin-7a(5H)-yl)methoxy)pyrido[4,3-d]pyrimidin-4-yl)azocan-4-yl)(3-methyl-1H-pyrazol-1-yl)methanone], the IC50 is 4 nM on KRas G12C; 3 nM on KRas G12S; 103 nM on KRas WT; 25 nM in test [1]; 93 nM in test [2]; 7 nM in test [3].

`CN(CCNC(=O)n1nccn1)c1nc(OC[C@@]23CCCN2C[C@H](F)C3)nc2c(F)c(-c3ccc(F)c4sc(N)c(C#N)c34)c(Cl)cc12` [Example 213, N-(2-((7-(2-amino-3-cyano-7-fluorobenzo[b]thiophen-4-yl)-6-chloro-8-fluoro-2-(((2R,7aS)-2-fluorotetrahydro-1H-pyrrolizin-7a(5H)-yl)methoxy)quinazolin-4-yl)(methyl)amino)ethyl)-2H-1,2,3-triazole-2-carboxamide]: the 50% inhibitory concentration (IC50) on KRas G12C is below 2 nM; at KRas G12S it was 5 nM; on KRas WT it was 8 nM; in test [1] it was 10 nM; in test [2], 387 nM; in test [3] it was 1180 nM.

The values are drawn from patent US20260356856A1, “KRAS G12S AND G12C INHIBITORS” (MIRATI THERAPEUTICS, INC., priority 2023, published 2026).
